Test results from patent US11331328B2, “Compositions and methods for inhibiting antiapoptotic Bcl-2 proteins as anti-aging agents” (priority 2014, dated 2022).
Where two headings read alike, the source gives them in different places.

Assays:
[1] = test system: senescent WI38 cells induced by replicative exhaustion (Rep-SC); test: Cell viability, LD50 in replicative senescent WI-38 cells; type: cell-based, human; conditions: Table 2
Procedure: (§1) Human WI-38 fibroblasts (WI38 cells, #CCL-75™), human IMR-90 fibroblasts (IMR90 cells, #CCL-186™), human renal epithelial cells (REC cells, #PCS-400-012™) were obtained from ACTT (Manassas, Va., USA). Mouse embryonic fibroblasts (MEF) were isolated from mouse embryos as described^1. All cells were cultured in a complete medium (CM) (Dulbecco's Modified Eagle Medium supplemented with 10% fetal bovine serum [FBS], 100 U/ml penicillin, and 100 μg/ml streptomycin [all from Atlanta Biologicals, Norcross, Ga., and USA]) in a humidified incubator at 37° C. and 5% CO2. Low passages of WI-38 cells (<25), IMR-90 (<25), REC cells (<25) and MEF (<3) were used as non-senescent controls or for induction of senescence to avoid replicative senescence. To induce replicative senescence, WI-38 cells were subcultivated until cell division ceased after about 38 passages or 60 population doublings (FIG. 5)^2. […]
Flow cytometry: Non-senescent and senescent cells were seeded into wells of 24- or 48-well at about 70% of confluence. […] Viable cells (PI^− cells) were numerated by flow cytometry at a constant flow rate and calculated as a percentage of control cells treated with vehicle using the formula: percentage of control=(Ndrug/NC)×100, where Ndrug and NC represent the absolute number of PI^− viable cells of drug-treated and vehicle-treated cells, respectively. […]

[2] = test system: non-senescent WI-38 cells (NC); test: Cell viability (PI flow cytometry), LD50 in non-senescent WI-38 cells; type: cell-based, human; conditions: for CC50: WI-38 fibroblasts, non-senescent, LD50 by Probit Analysis, read-out: LD50 (μM) for non-senescent cells (NC)
Procedure: Mouse embryonic fibroblasts (MEF) were isolated from mouse embryos as described^1. All cells were cultured in a complete medium (CM) (Dulbecco's Modified Eagle Medium supplemented with 10% fetal bovine serum [FBS], 100 U/ml penicillin, and 100 μg/ml streptomycin [all from Atlanta Biologicals, Norcross, Ga., and USA]) in a humidified incubator at 37° C. and 5% CO2. Low passages of WI-38 cells (<25), IMR-90 (<25), REC cells (<25) and MEF (<3) were used as non-senescent controls or for induction of senescence to avoid replicative senescence. […] To induce senescence by expression of oncogenic Ras (Ras^V12), WI-38 cells were infected with the retroviruses pBabe-H-Ras or pBabe-puro (control) (Addgene, Cambridge, Mass., UAS)^2, 3. […] Senescent cells were maintained in culture for a few days, changing the culture medium every 3 days until use. For in vitro cell culture experiments, we usually repeated the experiments for at least three times to ensure the reproducibility of the data. In addition, the repeats of the experiments for three times will allow us to obtain 3 independent observations for statistical analysis.
Flow cytometry: Non-senescent and senescent cells were seeded into wells of 24- or 48-well at about 70% of confluence. […] Both quiescent non-senescent cells and permanently growth arrested senescent cells were treated with vehicle (0.1% DMSO or PBS) or increasing concentrations of the compounds listed in Table 1 for various durations. […] After incubated with propidium iodide (PI 100 ng/ml) in PBS at room temperature for 1 min, cells were centrifuged at 1200 rpm for 6 min and then resuspended in PBS with 2% of FBS for analysis by a BD LSR II flow cytometer (BD Biosciences, San Jose, Calif., USA). Viable cells (PI^− cells) were numerated by flow cytometry at a constant flow rate and calculated as a percentage of control cells treated with vehicle using the formula: percentage of control=(Ndrug/NC)×100, where Ndrug and NC represent the absolute number of PI^− viable cells of drug-treated and vehicle-treated cells, respectively.
MTT (3-[4,5-dimethylthiazol-2-yl]-2,5 diphenyl tetrazolium bromide) assay: Cells were harvested, washed and resuspended in CM and added to wells of 24- or 48-well plates as described above. […] After 4 h at 37° C., the formazan was solubilized by lysing the cells with 300 μl of DMSO. Absorbance of formazan was measured at 595 nm using a Microplate Reader (BioTek, Winooski, Vt., USA). Cell viability was calculated in the method as previously described^4.
Trypan blue exclusion assay: Cells were harvested, washed and resuspended in CM and added to wells of a 6-well plate as described above. […] Living cells stained negative for trypan blue and were counted under light microscopy.
Briefly, Probit (set as y) was determined by looking up their correspondence to the % responded in Finney's table. The log of the compound concentrations was used as x. By fitting a line of regression, we produce the formula y=ax+b.

[3] = test system: mouse embryonic fibroblasts (MEF); test: Cell viability, IR-SC vs NC, mouse embryonic fibroblasts; type: cell-based; conditions: increasing concentrations, 72 h
Procedure: as §1
Flow cytometry: Non-senescent and senescent cells were seeded into wells of 24- or 48-well at about 70% of confluence. […] Viable cells (PI^− cells) were numerated by flow cytometry at a constant flow rate and calculated as a percentage of control cells treated with vehicle using the formula: percentage of control=(Ndrug/NC)×100, where Ndrug and NC represent the absolute number of PI^− viable cells of drug-treated and vehicle-treated cells, respectively.

Structure (SMILES): CC1(C)CCC(c2ccc(Cl)cc2)=C(CN2CCN(c3ccc(C(=O)NS(=O)(=O)c4ccc(N[C@H](CCN5CCOCC5)CSc5ccccc5)c(S(=O)(=O)C(F)(F)F)c4)cc3)CC2)C1 [ABT263, navitoclax]
- LD50 [1]: 1.45 µM
- CC50 ([2]; Homo sapiens): 12.6 µM
- LD50 ([2]; Table 2, NC WI38 cells): 12.60 µM
- CC50 [2]: 12.60 µM
- viable cells by MTT assay and trypan blue exclusion test ([2]; non-senescent WI-38, increasing concentrations, 72 h): is not cytotoxic to non-senescent WI-38 cells
- viable cells, IR-SC vs NC [3]: kills IR-induced senescent cells (IR-SC) but not non-senescent cells (NC)
